Reference: US4935422A, “Acyloxypropanolamines” (E. I. Du Pont de Nemours and Company, priority 1988, dated 1990)

Biological target: β-adrenergic receptors (guinea pig right atria and guinea pig tracheal strips)
Test: Beta-blocking activity in vitro: guinea pig right atria and tracheal strips, shift of isoproterenol concentration-response curves (pA2)
Settings: β-blockade of isoproterenol response, 60-minute incubation, 37 °C; pA2 (-log KB) by method of Furchgott; tissue (atria or trachea) not stated in Table 1
Description: Several of the compounds of the present invention were tested for β-blocking activity in vitro using guinea pig right atria and guinea pig tracheal strips mounted in a tissue bath containing oxygenated (95% O2 -5% CO2) Krebs physiological salt solution at 37° C. Each tissue was suspended between a fixed glass rod and a Statham Universal Transducer connected to a Beckman recorder. Atria were allowed to beat spontaneously under a loading tension of approximately 0.5 gm. Intrinsic depressant or stimulant activity was determined for each compound by progressively increasing concentrations in the tissue baths at 60-minute intervals. Tissues were not washed between increments. The maximum concentration showing little or no cardiodepressant activity was chosen for blockade experiments. Changes in rate in response to isoproterenol, a standard β-receptor agonist, were measured in the absence and presence of test compounds. Spiral strips of guinea pig trachea were suspended under 5 gm resting tension and incubated with phentolamine, tropolone and cocaine. Active tension was generated by addition of carbachol (3.0×10^-7 M) and decreases in tension in response to isoproterenol were quantitated. Cumulative concentration-response curves were produced with isoproterenol both before and after 60-minute incubation of test compounds with atria and trachea. Compounds with β-blocking activity shifted concentration-response curves to the right. The blocking potency of test compounds was estimated by computing pA2 values (-log […]) by the method of Furchgott, the Pharmacological Differentiation of Adrenergic Receptors, Ann. N.Y. Acad. Sci., 139:553-570 (1967). […] The degree of cardioselectivity was estimated from the ratio, kβ trachea/Kβ atria (10^(pA.sbsp.2^atria-pA.sbsp.2^trachea)). A ratio greater than one indicates cardioselectivity. Test drugs were dissolved in distilled water and added to the bath (30 mL) in a volume of 10 or 100 μL. All of the test compounds are active β-blockers. [drawing 10]

| pA2 | SMILES |
| --- | --- |
| 6.5 | CC(C)(C)NCC(O)COC(=O)C1CC1 (stereo not shown) [Compound 2] |
| 5.3 | CC(C)(C)NCC(O)COC(=O)C(C)(C)C (stereo not shown) [Compound 3] |
| 5.0 | CC(C)(C)NCC(O)COC(=O)C1CCC1 (stereo not shown) [Compound 4] |
| 6.5 | CC(C)C(=O)NCC(C)(C)NCC(O)COC(=O)C(C)(C)C (stereo not shown) [Compound 5] |
| 6.5 | CC(C)C(=O)NCC(C)(C)NCC(O)COC(=O)C1CCC1 (stereo not shown) [Compound 7] |
| 7.6 | CC(C)C(=O)NCC(C)(C)NCC(O)COC(=O)C1=CCCC1 (stereo not shown) [Compound 8] |
| 6.9 | CC(C)C(=O)NCC(C)(C)NCC(O)COC(=O)C1CC=CCC1 (stereo not shown) [Compound 9] |
| 8.1 | CC(C)(CNC(=O)N1CCCCC1)NCC(O)COC(=O)C1CC1 (stereo not shown) [Compound 10] |
| 8.0 | CC(C)(CNC(=O)N1CCOCC1)NCC(O)COC(=O)C1CC1 (stereo not shown) [Compound 11] |
| 7.3 | CC(C)(CNC(=O)C1CCOC1)NCC(O)COC(=O)/C=C/c1ccccc1 (stereo not shown) [Compound 12] |
